From patent US10076519B2 (CYTOKINETICS, INC., priority 2010, dated 2018)

Tested on: rabbit skeletal myofibrils (fast skeletal myofibrils)
Assay: Activation of fast skeletal myofibrils (PUMA assay, PK/LDH-coupled ATPase at pCa25)
Assay type: biochemical
Outline: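 Detergent-washed rabbit psoas myofibrils (~90% fast fibres, calcium-regulated) assayed at calcium giving 25% of maximal ATPase rate (pCa25). ADP turnover coupled via pyruvate kinase/lactate dehydrogenase to NADH oxidation, read at 340 nm. Buffer 12 mM PIPES, 2 mM MgCl2, 1 mM DTT, pH 6.8; AC1.4 values derived.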

[1] = median AC1.4 class, procedure of Example 39
[2] = median AC1.4 reported as class, procedure of Example 39

SMILES	Mean AC1.4 [1]	Mean AC1.4 [2]	further results
CS(=O)(=O)N1Cc2nc(-c3ccc(NCC4(c5ncccc5F)CCC4)nn3)sc2C1 [2-[6-({[(3-fluoro(2-pyridyl))cyclobutyl]methyl}ami-no)pyridazin-3-yl]-5-(methylsulfonyl)-3-pyrrolino[3,4-d]1,3-thiazole]	D (D=>20 uM)	–	–
CS(=O)(=O)N1CCc2nc(-c3ccc(NCC4(c5ncccc5F)CCC4)nn3)sc2C1 [2-[6-({[(3-fluoro(2-pyridyl))cyclobutyl]methyl}ami-no)pyridazin-3-yl]-5-(methylsulfonyl)-4,5,6,7-tetrahydro-1,3-thiazolo[5,4-c]pyridine]	–	D (D=>20 uM)	–
Cc1cc(NCC2(c3ncccc3F)CCC2)nnc1-c1ncc(C(N)=O)s1 [2-[6-({[(3-fluoro(2-pyridyl))cyclobutyl]methyl}amino)-4-methylpyridazin-3-yl]-1,3-thiazole-5-carboxamide]	–	A (A=<1 uM)	–
Oc1ccc2nc(-c3ccc(NCC4(c5ncccc5F)CCC4)nn3)sc2n1 [2-[6-({[(3-fluoro-2-pyridyl)cyclobutyl]methyl}ami-no)pyridazin-3-yl]-1,3-thiazolino[5,4-b]pyridin-5-ol]	B (B=1-10 uM)	–	–
NC(=O)c1ccc2nc(-c3ccc(NCC4(c5ncccc5F)CCC4)nn3)sc2n1 [2-[6-({[(3-fluoro-2-pyridyl)cyclobutyl]methyl}ami-no)pyridazin-3-yl]-1,3-thiazolino[5,4-b]pyridine-5-carboxamide]	D (D=>20 uM)	–	–
NC(=O)N1CCc2nc(-c3ccc(NCC4(c5ncccc5F)CCC4)nn3)sc2C1 [2-[6-({[(3-fluoro-2-pyridyl)cyclobutyl]methyl}ami-no)pyridazin-3-yl]-4,5,6,7-tetrahydro-1,3-thiazolo[5,4-c]pyridine-5-carboxamide]	–	D (D=>20 uM)	–
NC(=O)C1CCc2sc(-c3ccc(NCC4(c5ncccc5F)CCC4)nn3)nc21 (centres unmarked) [2-[6-({[(3-fluoro-2-pyridyl)cyclobutyl]methyl}ami-no)pyridazin-3-yl]-4,5,6-trihydrocyclopenta[1,2-d]1,3-thiazole-4-carboxamide]	–	D (D=>20 uM)	–
NC(=O)c1c[nH]c(-c2ccc(NCC3(c4ncccc4F)CCC3)nn2)n1 [2-[6-({[(3-fluoro-2-pyridyl)cyclobutyl]methyl}ami-no)pyridazin-3-yl]imidazole-4-carboxamide]	B (B=1-10 uM)	–	–
NC(=O)c1ccnc(-c2ccc(NCC3(c4ncccc4F)CCC3)nn2)n1 [2-[6-({[(3-fluoro-2-pyridyl)cyclobutyl]methyl}ami-no)pyridazin-3-yl]pyrimidine-4-carboxamide]	A (A=<1 uM)	–	–
O=C1NCc2cc(-c3ccc(NCC4(c5ncccc5F)CCC4)nn3)sc21 [2-[6-({[(3-fluoro-2-pyridyl)cyclobutyl]methyl}ami-no)pyridazin-3-yl]thiopheno[2,3-c]3-pyrrolin-6-one]	B (B=1-10 uM)	–	–
CC(C)(N)C(=O)NCc1cnc(-c2ccc(NCC(C)(C)c3ncccc3Cl)nn2)s1 [2-amino-N-{[2-(6-{[2-(3-chloro(2-pyridyl))-2-methylpropyl]amino}pyridazin-3-yl)(1,3-thiazol-5-yl)]methyl}-2-methylpropanamide]	–	A (A=<1 uM)	–
CC(C)(CNc1ccc(-c2ccc(C(=O)O)c(F)c2)nn1)c1ccc(F)cc1 [2-fluoro-4-(6-{[2-(4-fluorophenyl)-2-methylpropyl]amino}pyridazin-3-yl)benzoic acid]	–	–	Mean AC1.4 (AC1.4 determined according to the procedure of Example 39, reported as class symbols): D (D=>20 uM)
O=C(O)c1cc(-c2ccc(NC[C@]3(c4ncccc4F)C[C@H](F)C3)nn2)ccc1F [2-fluoro-5-[6-({[3-fluoro-1-(3-fluoro(2-pyridyl))cyclobutyl]methyl}ami-no)pyridazin-3-yl]benzoic acid]	–	B (B=1-10 uM)	–
NC(=O)Cc1cnc(-c2ccc(NC[C@]3(c4ncccc4Cl)C[C@H](F)C3)nn2)s1 [2-{2-[6-({[1-(3-chloro(2-pyridyl))-3-fluorocyclobutyl]methyl}ami-no)pyridazin-3-yl]-1,3-thiazol-5-yl}acetamide]	–	B (B=1-10 uM)	–
CNC(=O)Cc1cnc(-c2ccc(NC[C@]3(c4ncccc4Cl)C[C@H](F)C3)nn2)s1 [2-{2-[6-({[1-(3-chloro(2-pyridyl))-3-fluorocyclobutyl]methyl}amino)pyr-idazin-3-yl](1,3-thiazol-5-yl)}-N-methylacetamide]	–	B (B=1-10 uM)	–
NC(=O)Cc1cnc(-c2ccc(NC[C@]3(c4ncccc4F)C[C@H](F)C3)nn2)s1 [2-{2-[6-({[3-fluoro-1-(3-fluoro(2-pyridyl))cyclobutyl]methyl}ami-no)pyridazin-3-yl]-1,3-thiazol-5-yl}acetamide]	–	B (B=1-10 uM)	–
O=C(O)Cc1cnc(-c2ccc(NC[C@]3(c4ncccc4F)C[C@H](F)C3)nn2)s1 [2-{2-[6-({[3-fluoro-1-(3-fluoro(2-pyridyl))cyclobutyl]methyl}ami-no)pyridazin-3-yl]-1,3-thiazol-5-yl}acetic acid]	–	B (B=1-10 uM)	–
CNC(=O)Cc1cnc(-c2ccc(NCC3(c4ncccc4Cl)CCC3)nn2)s1 [2-{2-[6-({[(3-chloro(2-pyridyl))cyclobutyl]methyl}ami-no)pyridazin-3-yl](1,3-thiazol-5-yl)}-N-methylacetamide]	–	A (A=<1 uM)	–
NC(=O)Cc1cnc(-c2ccc(NCC3(c4ncccc4Cl)CCC3)nn2)s1 [2-{2-[6-({[(3-chloro-2-pyridyl)cyclobutyl]methyl}ami-no)pyridazin-3-yl]-1,3-thiazol-5-yl}acetamide]	–	A (A=<1 uM)	–
CNC(=O)Cc1cnc(-c2nnc(NCC3(c4ncccc4F)CCC3)cc2C)s1 [2-{2-[6-({[(3-fluoro(2-pyridyl))cyclobutyl]methyl}amino)-4-methylpyridazin-3-yl](1,3-thiazol-5-yl)}-N-methylacetamide]	–	B (B=1-10 uM)	–
Cc1cc(NCC2(c3ncccc3F)CCC2)nnc1-c1ncc(CC(N)=O)s1 [2-{2-[6-({[(3-fluoro(2-pyridyl))cyclobutyl]methyl}amino)-4-methylpyridazin-3-yl]-1,3-thiazol-5-yl}acetamide]	–	B (B=1-10 uM)	–
Cc1cc(NCC2(c3ncccc3F)CCC2)nnc1-c1ncc(CC(=O)O)s1 [2-{2-[6-({[(3-fluoro(2-pyridyl))cyclobutyl]methyl}amino)-4-methylpyridazin-3-yl]-1,3-thiazol-5-yl}acetic acid]	–	B (B=1-10 uM)	–

The next lines start with results.

Mean AC1.4 [1]	Mean AC1.4 [2]	SMILES	further results
B (B=1-10 uM)	–	N#Cc1cnc(-c2ccc(NCC3(c4ncccc4F)CCC3)nn2)s1 [2-[6-({[(3-fluoro-2-pyridyl)cyclobutyl]methyl}ami-no)pyridazin-3-yl]-1,3-thiazole-5-carbonitrile]	–
C (C=10-20 uM)	–	O=C(O)c1cnc(-c2ccc(NCC3(c4ncccc4F)CCC3)nn2)s1 [2-[6-({[(3-fluoro-2-pyridyl)cyclobutyl]methyl}ami-no)pyridazin-3-yl]-1,3-thiazole-5-carboxylic acid]	–
B (B=1-10 uM)	–	NS(=O)(=O)c1cnc(-c2ccc(NCC3(c4ncccc4F)CCC3)nn2)s1 [2-[6-({[(3-fluoro-2-pyridyl)cyclobutyl]methyl}ami-no)pyridazin-3-yl]-1,3-thiazole-5-sulfonamide]	–
–	D (D=>20 uM)	O=C(O)C1CCc2sc(-c3ccc(NCC4(c5ncccc5F)CCC4)nn3)nc21 (centres unmarked) [2-[6-({[(3-fluoro-2-pyridyl)cyclobutyl]methyl}ami-no)pyridazin-3-yl]-4,5,6-trihydrocyclopenta[1,2-d]1,3-thiazole-4-carboxylic acid]	–
B (B=1-10 uM)	–	NC(=O)CNCc1cnc(-c2ccc(NCC3(c4ncccc4F)CCC3)nn2)s1 [2-[({2-[6-({[(3-fluoro-2-pyridyl)cyclobutyl]methyl}ami-no)pyridazin-3-yl]-1,3-thiazol-5-yl}methyl)amino]acetamide]	–
–	B (B=1-10 uM)	OCCNCc1cnc(-c2ccc(NCC3(c4ncccc4F)CCC3)nn2)s1 [2-[({2-[6-({[(3-fluoro-2-pyridyl)cyclobutyl]methyl}ami-no)pyridazin-3-yl]-1,3-thiazol-5-yl}methyl)amino]ethan-1-ol]	–
–	A (A=<1 uM)	CN(Cc1cnc(-c2ccc(NCC3(c4ncccc4F)CCC3)nn2)s1)C(=O)C(C)(C)N [2-amino-N-({2-[6-({[(3-fluoro(2-pyridyl))cyclobutyl]methyl}ami-no)pyridazin-3-yl](1,3-thiazol-5-yl)}methyl)-2-methyl-N-methylpropanamide]	–
A (A=<1 uM)	–	CC(C)(N)C(=O)NCc1cnc(-c2ccc(NCC3(c4ncccc4F)CCC3)nn2)s1 [2-amino-N-({2-[6-({[(3-fluoro(2-pyridyl))cyclobutyl]methyl}ami-no)pyridazin-3-yl](1,3-thiazol-5-yl)}methyl)-2-methylpropanamide]	–
A (A=<1 uM)	–	NCC(=O)NCc1cnc(-c2ccc(NCC3(c4ncccc4F)CCC3)nn2)s1 [2-amino-N-({2-[6-({[(3-fluoro(2-pyridyl))cyclobutyl]methyl}ami-no)pyridazin-3-yl](1,3-thiazol-5-yl)}methyl)acetamide]	–
–	D (D=>20 uM)	CC(C)(C(N)=O)c1cnc(-c2ccc(NCC3(c4ncccc4F)CCC3)nn2)s1 [2-{2-[6-({[(3-fluoro(2-pyridyl))cyclobutyl]methyl}ami-no)pyridazin-3-yl](1,3-thiazol-5-yl)}-2-methylpropanamide]	–
–	D (D=>20 uM)	CC(C)(C#N)c1cnc(-c2ccc(NCC3(c4ncccc4F)CCC3)nn2)s1 [2-{2-[6-({[(3-fluoro(2-pyridyl))cyclobutyl]methyl}ami-no)pyridazin-3-yl](1,3-thiazol-5-yl)}-2-methylpropanenitrile]	–
–	B (B=1-10 uM)	CN(C)C(=O)Cc1cnc(-c2ccc(NCC3(c4ncccc4F)CCC3)nn2)s1 [2-{2-[6-({[(3-fluoro(2-pyridyl))cyclobutyl]methyl}ami-no)pyridazin-3-yl](1,3-thiazol-5-yl)}-N,N-dimethylacetamide]	–
–	B (B=1-10 uM)	CNC(=O)Cc1cnc(-c2ccc(NCC3(c4ncccc4F)CCC3)nn2)s1 [2-{2-[6-({[(3-fluoro(2-pyridyl))cyclobutyl]methyl}ami-no)pyridazin-3-yl](1,3-thiazol-5-yl)}-N-methylacetamide]	–
